Assay results reported in patent US20250154173A1 (Merck Sharp & Dohme LLC, priority 2023, published 2025).

Biological target: T1, GST-RIPK1 (recombinant GST-RIPK1 kinase domain (residues 1-327)) (Homo sapiens, UniProt Q13546)
T1 construct: recombinant GST-RIPK1 kinase domain (residues 1-327) enzyme produced from baculovirus-transfected Sf21 cells; host or cells: baculovirus-transfected Sf21 insect cells
T1 sequence (Q13546 1-327): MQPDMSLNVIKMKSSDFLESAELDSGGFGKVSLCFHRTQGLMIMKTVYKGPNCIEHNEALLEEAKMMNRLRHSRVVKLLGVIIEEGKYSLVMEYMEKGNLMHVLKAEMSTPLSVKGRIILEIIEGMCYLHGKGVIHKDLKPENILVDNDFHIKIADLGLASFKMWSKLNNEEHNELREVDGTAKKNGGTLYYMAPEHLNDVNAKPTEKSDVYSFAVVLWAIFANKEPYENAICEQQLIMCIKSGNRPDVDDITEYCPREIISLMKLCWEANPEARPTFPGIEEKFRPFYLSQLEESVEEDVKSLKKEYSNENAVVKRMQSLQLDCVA
Assay: RIPK1-ADP-Glo Enzymatic Assay
Format: biochemical
Conditions: ten-point titration, top compound concentration of 100000 nM; 25 nM GST-RIPK1, 300 μM ATP, 3 μM dephosphorylated-MBP; 30 min pre-incubation, 150 min reaction
In short: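 ADP-Glo luminescence quantifies ADP formed over 150 minutes by 25 nM Sf21-produced GST-RIPK1 (1-327) using 300 μM ATP and 3 μM dephosphorylated MBP, following 30-minute compound preincubation at 1% DMSO. Ten-point 1:3 series from 100000 nM gave EC50 via four-parameter sigmoidal regression.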

SMILES | EC50 [µM]
COCCOc1ccc(COC2CC3(C2)OC2CC[C@@H](c4cnccn4)N2C3=O)cc1 (stereo partly drawn) [Example 18.99, (5′S)-3-{[4-(2-methoxyethoxy)phenyl]methoxy}-5′-(pyrazin-2-yl)tetrahydro-3′H-spiro[cyclobutane-1,2′-pyrrolo[2,1-b][1,3]oxazol]-3′-one] | 0.205
O=C1N2[C@@H](CC[C@H]2c2cc(F)cc(F)c2)O[C@]12C[C@H](Oc1cccnc1Cl)C2 [Example 9.36, (5′S,7a′R)-3-[(2-chloropyridin-3-yl)oxy]-5′-(3,5-difluorophenyl)tetrahydro-3′H-spiro[cyclobutane-1,2′-pyrrolo[2,1-b][1,3]oxazol]-3′-one] | 0.016
O=C1N2[C@@H](CC[C@H]2c2ccc(F)cc2)OC12CC(Oc1nccn3ncnc13)C2 (stereo partly drawn) [Example 9.59, (5′S,7a′R)-5′-(4-fluorophenyl)-3-[([1,2,4]triazolo[1,5-a]pyrazin-8-yl)oxy]tetrahydro-3′H-spiro[cyclobutane-1,2′-pyrrolo[2,1-b][1,3]oxazol]-3′-one] | 0.0719
Cc1cc2c(O[C@H]3C[C@@]4(C3)O[C@@H]3CC[C@@H](c5cc(F)cc(F)c5)N3C4=O)ncnc2s1 [Example 9.33, (1r,3R,5′S,7a′R)-5′-(3,5-difluorophenyl)-3-[(6-methylthieno[2,3-d]pyrimidin-4-yl)oxy]tetrahydro-3′H-spiro[cyclobutane-1,2′-pyrrolo[2,1-b][1,3]oxazol]-3′-one] | 0.008
N#Cc1ccncc1COC1CC2(C1)OC1CC[C@@H](c3cnccn3)N1C2=O (stereo partly drawn) [Example 18.45, 3-({[(5′S)-3′-oxo-5′-(pyrazin-2-yl)tetrahydro-3′H-spiro[cyclobutane-1,2′-pyrrolo[2,1-b][1,3]oxazol]-3-yl]oxy}methyl)pyridine-4-carbonitrile] | 0.159
CC(OC1CC2(C1)O[C@@H]1CC[C@@H](c3cc(F)cc(F)c3)N1C2=O)c1ncccc1F (single isomer, unassigned) [Example 12.4, (1S or R,3S or R,5′S,7a′R)-5′-(3,5-difluorophenyl)-3-((S or R)-1-(3-fluoropyridin-2-yl)ethoxy)tetrahydro-3′H-spiro[cyclobutane-1,2′-pyrrolo[2,1-b]oxazol]-3′-one] | 0.329
N#Cc1ccc(OC2CC3(C2)O[C@@H]2CC[C@@H](c4ccccc4)N2C3=O)cc1 (stereo partly shown) [Example 8.9] | 0.072
O=C1N2C(CC[C@H]2c2cnccn2)OC12CC(OCc1ccc3nc(C(F)(F)F)cn3c1)C2 (stereo partly shown) [Example 18.103] | 0.607
Cc1nnc(-c2ccc(COC3CC4(C3)O[C@@H]3CC[C@@H](c5cnccn5)N3C4=O)cc2)o1 (stereo partly drawn) [Example 22.9, (5′S,7a′R)-3-{[4-(5-methyl-1,3,4-oxadiazol-2-yl)phenyl]methoxy}-5′-(pyrazin-2-yl)tetrahydro-3′H-spiro[cyclobutane-1,2′-pyrrolo[2,1-b][1,3]oxazol]-3′-one] | 0.037

Further lines, results first:

EC50 [µM] | SMILES
0.02 | NC(=O)c1ccnc(O[C@H]2C[C@@]3(C2)O[C@@H]2CC[C@@H](c4ccccc4)N2C3=O)c1 [Example 10.5, 2-(((1r,3R,5′S,7a′R)-3′-oxo-5′-phenyltetrahydro-3′H-spiro[cyclobutane-1,2′-pyrrolo[2,1-b]oxazol]-3-yl)oxy)isonicotinamide]
0.11 | O=C1N2C(CC[C@H]2c2cnccn2)OC12CC(OCc1cnc3c(c1)CCCC3)C2 (stereo partly drawn) [Example 18.42, (5′S)-5′-(pyrazin-2-yl)-3-[(5,6,7,8-tetrahydroquinolin-3-yl)methoxy]tetrahydro-3′H-spiro[cyclobutane-1,2′-pyrrolo[2,1-b][1,3]oxazol]-3′-one]
0.188 | O=C1N2[C@@H](CC[C@H]2c2ccc(F)cc2)OC12CC(OCc1cccnc1)C2 (stereo partly drawn) [Example 9.60, (5′S,7a′R)-5′-(4-fluorophenyl)-3-[(pyridin-3-yl)methoxy]tetrahydro-3′H-spiro[cyclobutane-1,2′-pyrrolo[2,1-b][1,3]oxazol]-3′-one]
0.227 | N#Cc1cc(OC2CC3(C2)O[C@@H]2CC[C@@H](c4cc(F)cc(F)c4)N2C3=O)ncc1F (single isomer, unassigned) [Example 17.2, 2-((((1r or s),3S,5′S,7a′R)-5′-(3,5-difluorophenyl)-3′-oxotetrahydro-3′H-spiro[cyclobutane-1,2′-pyrrolo[2,1-b]oxazol]-3-yl)oxy)-5-fluoroisonicotinonitrile]
0.045 | O=C1N2C(CC[C@H]2c2cnccn2)OC12CC(OCc1cnn3cccnc13)C2 (stereo partly drawn) [Example 18.4, (5′S)-5′-(pyrazin-2-yl)-3-[(pyrazolo[1,5-a]pyrimidin-3-yl)methoxy]tetrahydro-3′H-spiro[cyclobutane-1,2′-pyrrolo[2,1-b][1,3]oxazol]-3′-one]
0.028 | N#Cc1cc(F)cc([C@@H]2CC[C@H]3O[C@]4(C[C@H](Oc5cc(C#N)ncn5)C4)C(=O)N32)c1 [Example 9.44, 6-(((5′S,7a′R)-5′-(3-cyano-5-fluorophenyl)-3′-oxotetrahydro-3′H-spiro[cyclobutane-1,2′-pyrrolo[2,1-b]oxazol]-3-yl)oxy)pyrimidine-4-carbonitrile]
0.013 | O=C1N2C(CCC2c2ccc(F)cn2)OC12CC(Oc1ncnn3cccc13)C2 (stereo not shown) [Example 9.65, 5′-(5-fluoropyridin-2-yl)-3-[(pyrrolo[2,1-f][1,2,4]triazin-4-yl)oxy]tetrahydro-3′H-spiro[cyclobutane-1,2′-pyrrolo[2,1-b][1,3]oxazol]-3′-one]
0.128 | O=C1N2C(CC[C@H]2c2cnccn2)OC12CC(OCc1cnc3nccn3c1)C2 (stereo partly drawn) [Example 18.46, (5′S)-3-[(imidazo[1,2-a]pyrimidin-6-yl)methoxy]-5′-(pyrazin-2-yl)tetrahydro-3′H-spiro[cyclobutane-1,2′-pyrrolo[2,1-b][1,3]oxazol]-3′-one]
0.012 | N#CCc1cccc(COC2CC3(C2)OC2CC[C@@H](c4cnccn4)N2C3=O)c1 (stereo partly drawn) [Example 18.10, [3-({[(5′S)-3′-oxo-5′-(pyrazin-2-yl)tetrahydro-3′H-spiro[cyclobutane-1,2′-pyrrolo[2,1-b][1,3]oxazol]-3-yl]oxy}methyl)phenyl]acetonitrile]
0.024 | O=C1N2[C@@H](CC[C@H]2c2cc(F)cc(F)c2)O[C@]12C[C@H](Oc1cc(-c3cnn(C(F)F)c3)ncn1)C2 [Example 9.54, (5′S,7a′R)-3-((6-(1-(difluoromethyl)-1H-pyrazol-4-yl)pyrimidin-4-yl)oxy)-5′-(3,5-difluorophenyl)tetrahydro-3′H-spiro[cyclobutane-1,2′-pyrrolo[2,1-b]oxazol]-3′-one]
0.159 | O=C1N2C(CC[C@H]2c2cnccn2)OC12CC(OCc1ccc3nc(C(F)(F)F)cn3c1)C2 (stereo partly drawn) [Example 18.54, (5′S)-5′-(pyrazin-2-yl)-3-{[2-(trifluoromethyl)imidazo[1,2-a]pyridin-6-yl]methoxy}tetrahydro-3′H-spiro[cyclobutane-1,2′-pyrrolo[2,1-b][1,3]oxazol]-3′-one]
0.032 | O=C1N2[C@@H](CC[C@H]2c2ccccc2)OC12CC(Oc1ccnc(Cl)c1)C2 (stereo partly drawn) [Example 8.11, (5′S,7a′R)-3-[(2-chloropyridin-4-yl)oxy]-5′-phenyltetrahydro-3′H-spiro[cyclobutane-1,2′-pyrrolo[2,1-b][1,3]oxazol]-3′-onee]
0.583 | O=C1N2C(CC[C@H]2c2cnccn2)OC12CC(OCc1cc(-n3ccnc3)ccn1)C2 (stereo partly shown) [Example 18.87]
